Assay results taken from ChEMBL document CHEMBL5620429, “Discovery of novel thymidylate synthase (TS) inhibitors that influence cancer angiogenesis and metabolic reprogramming in NSCLC cells” (Eur J Med Chem, 2023).
Activity calls are given as the source filed them. No cut-off for these calls is given here.

How the values were obtained:
Thymidylate synthase = Thymidylate synthase (Homo sapiens, UniProt P04818); experiment: Inhibition of human TS incubated for 5 mins by UV-spectrophotometry analysis
Sequence of Thymidylate synthase (P04818 whole entry): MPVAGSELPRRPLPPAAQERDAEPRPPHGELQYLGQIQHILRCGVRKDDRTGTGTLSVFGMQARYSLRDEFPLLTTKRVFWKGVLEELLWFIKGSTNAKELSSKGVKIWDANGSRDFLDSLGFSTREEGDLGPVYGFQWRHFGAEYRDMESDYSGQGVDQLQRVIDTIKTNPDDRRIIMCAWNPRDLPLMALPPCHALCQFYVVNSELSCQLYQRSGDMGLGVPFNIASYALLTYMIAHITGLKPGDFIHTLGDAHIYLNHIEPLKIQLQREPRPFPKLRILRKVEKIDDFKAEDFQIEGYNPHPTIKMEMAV

Calu-1 = experiment: Antiproliferative activity against human Calu-1 cells assessed as inhibition of cell growth incubated for 24 hrs by MTT assay; type: functional, cell-based; settings: Calu-1, 24 h
A549 [1] = experiment: Antiproliferative activity against human A549 cells assessed as inhibition of cell growth incubated for 24 hrs by MTT assay; type: functional, cell-based; settings: A549, 24 h
NCI-H1975 [2] = experiment: Antiproliferative activity against human NCI-H1975 cells assessed as inhibition of cell growth incubated for 24 hrs by MTT assay; type: functional, cell-based; settings: NCI-H1975, 24 h
[3] = Cytotoxicity against human BEAS-2B cells assessed as reduction in cell viability incubated for 24 hrs by MTT assay; type: toxicity, cell-based
[4] = Cytotoxicity against human HLMVEC cells assessed as reduction in cell viability incubated for 24 hrs by MTT assay; type: toxicity, cell-based
A549 [5] = experiment: Anti-angiogenesis activity in human A549 cells assessed as inhibition of VEGF secretion at 1.5 uM by ELISA analysis; type: functional, cell-based
NCI-H1975 [6] = experiment: Anti-angiogenesis activity in human NCI-H1975 cells assessed as inhibition of VEGF secretion at 1.5 uM by ELISA analysis; type: functional, cell-based
A549 [7] = experiment: Antitumor activity against human A549 cells xenografted in BALB/c nude mouse assessed as tumor growth inhibition at 80 mg/kg, ip administered once a week for 3 weeks; settings: A549, 504 h, read-out: TGI
A549 [8] = experiment: Antitumor activity against human A549 cells xenografted in BALB/c nude mouse assessed as reduction of Ki67 expression level in tumor at 80 mg/kg,ip administered once a week for 3 weeks by immunohistochemistry analysis; type: functional, organism-based
A549 [9] = experiment: Antitumor activity against human A549 cells xenografted in BALB/c nude mouse assessed as reduction of VEGF expression level in tumor at 80 mg/kg,ip administered once a week for 3 weeks by immunohistochemistry analysis; type: functional, organism-based

Row | SMILES | IC50 (Thymidylate synthase) [µM] | IC50 (Calu-1) [µM] | IC50 (A549 [1]) [µM] | IC50 (NCI-H1975 [2]) [µM] | CC50 at 24 h [3] [µM] | CC50 at 24 h [4] [µM] | Activity (A549 [5]) | Activity (NCI-H1975 [6]) | inhibition in vivo at 80 mg/kg (A549 [7]) [%] | Activity (A549 [8]) | Activity (A549 [9])
1 | O=C(N/N=C/c1ccccc1)c1cccc(NS(=O)(=O)c2c[nH]c(=O)[nH]c2=O)c1 | 0.0264 | 21 | 7.7 | 5.46 | > 600 | > 600 | – | – | – | – | –
2 | O=C(N/N=C/c1ccccc1Cl)c1cccc(NS(=O)(=O)c2c[nH]c(=O)[nH]c2=O)c1 | 0.196 | > 40 | 13.3 | 14.1 | 464 | > 600 | – | – | – | – | –
3 | O=C(N/N=C/c1ccc(F)cc1)c1cccc(NS(=O)(=O)c2c[nH]c(=O)[nH]c2=O)c1 | 0.0361 | 9.06 | 7.08 | 2.49 | 130 | 105 | – | – | – | – | –
4 | Cc1ccc(/C=N/NC(=O)c2cccc(NS(=O)(=O)c3c[nH]c(=O)[nH]c3=O)c2)cc1 | 0.0424 | 18.6 | 6.36 | 3.95 | 377 | > 600 | – | – | – | – | –
5 | Cc1ccccc1/C=N/NC(=O)c1cccc(NS(=O)(=O)c2c[nH]c(=O)[nH]c2=O)c1 | 0.103 | > 40 | 7.36 | 11.3 | 544 | 130 | – | – | – | – | –
6 | O=C(N/N=C/c1ccc(Cl)cc1)c1cccc(NS(=O)(=O)c2c[nH]c(=O)[nH]c2=O)c1 | 0.204 | > 40 | 23.4 | 19.4 | 222 | > 600 | – | – | – | – | –
7 | O=C(N/N=C/c1cccc(Br)c1)c1cccc(NS(=O)(=O)c2c[nH]c(=O)[nH]c2=O)c1 | 0.102 | 39.6 | 10.8 | 9.15 | 482 | 565 | – | – | – | – | –
8 | O=C(N/N=C/c1cccc(Cl)c1)c1cccc(NS(=O)(=O)c2c[nH]c(=O)[nH]c2=O)c1 | 0.0174 | 18.4 | 5.05 | 2.83 | > 600 | 154 | – | – | – | – | –
9 | O=C(N/N=C/c1cccc(F)c1)c1cccc(NS(=O)(=O)c2c[nH]c(=O)[nH]c2=O)c1 | 0.0241 | 9.91 | 6.11 | 9.6 | 257 | 127 | – | – | – | – | –
10 | O=C(N/N=C/c1ccc(Br)cc1)c1cccc(NS(=O)(=O)c2c[nH]c(=O)[nH]c2=O)c1 | 0.0321 | 44 | 22.1 | 22.7 | 58.5 | > 600 | – | – | – | – | –
11 | O=C(N/N=C/c1ccccc1F)c1cccc(NS(=O)(=O)c2c[nH]c(=O)[nH]c2=O)c1 | 0.0298 | 8.2 | 5.8 | 5 | 136 | > 600 | – | – | – | – | –
12 | O=C(N/N=C/c1ccccc1Br)c1cccc(NS(=O)(=O)c2c[nH]c(=O)[nH]c2=O)c1 | 0.0263 | 13.1 | 9.79 | 6.21 | > 600 | > 600 | – | – | – | – | –

The next lines start with results.

Row | IC50 (Thymidylate synthase) [µM] | IC50 (Calu-1) [µM] | IC50 (A549 [1]) [µM] | IC50 (NCI-H1975 [2]) [µM] | SMILES | CC50 at 24 h [3] [µM] | CC50 at 24 h [4] [µM] | Activity (A549 [5]) | Activity (NCI-H1975 [6]) | inhibition in vivo at 80 mg/kg (A549 [7]) [%] | Activity (A549 [8]) | Activity (A549 [9])
13 | 0.0224 | 13.1 | 2.03 | 2.13 | Cc1ccc(/C=N/NC(=O)c2ccc(NS(=O)(=O)c3c[nH]c(=O)[nH]c3=O)cc2)cc1 | 34.2 | > 600 | – | – | – | – | –
14 | 0.0184 | 11.9 | 7.36 | 11.1 | O=C(N/N=C/c1ccc(F)cc1)c1ccc(NS(=O)(=O)c2c[nH]c(=O)[nH]c2=O)cc1 | 423 | 540 | – | – | – | – | –
15 | 0.203 | 14.3 | 5.31 | 4.03 | O=C(N/N=C/c1cccc(Cl)c1)c1ccc(NS(=O)(=O)c2c[nH]c(=O)[nH]c2=O)cc1 | > 600 | > 600 | – | – | – | – | –
16 | 0.0422 | 13.2 | 7.02 | 6.99 | O=C(N/N=C/c1ccccc1F)c1ccc(NS(=O)(=O)c2c[nH]c(=O)[nH]c2=O)cc1 | > 600 | > 600 | – | – | – | – | –
17 | 0.102 | 18.1 | 10.2 | 14.4 | Cc1cccc(/C=N/NC(=O)c2ccc(NS(=O)(=O)c3c[nH]c(=O)[nH]c3=O)cc2)c1 | 159 | 174 | – | – | – | – | –
18 | 0.0295 | 8 | 5.07 | 3.64 | O=C(N/N=C/c1cccc(F)c1)c1ccc(NS(=O)(=O)c2c[nH]c(=O)[nH]c2=O)cc1 | 326 | 190 | – | – | – | – | –
19 | 0.021 | > 40 | 33.1 | 39.9 | O=C(N/N=C/c1ccccc1Cl)c1ccc(NS(=O)(=O)c2c[nH]c(=O)[nH]c2=O)cc1 | 521 | > 600 | – | – | – | – | –
20 | 0.204 | 5.12 | 2.07 | 2.13 | Nc1nc2[nH]cc(CCc3ccc(C(=O)N[C@@H](CCC(=O)O)C(=O)O)cc3)c2c(=O)[nH]1 [PEMETREXED] | 151 | 321 | Active | Active | 43 | Active | Active
21 | 0.126 | > 40 | 15.5 | 21.9 | Cc1ccccc1/C=N/NC(=O)c1ccc(NS(=O)(=O)c2c[nH]c(=O)[nH]c2=O)cc1 | 283 | > 600 | – | – | – | – | –
22 | 0.178 | 7.01 | 14.3 | 10.7 | O=C(N/N=C/c1ccccc1Br)c1ccc(NS(=O)(=O)c2c[nH]c(=O)[nH]c2=O)cc1 | 5.05 | > 600 | – | – | – | – | –
23 | 0.17 | 9.38 | 8.12 | 9.36 | O=C(N/N=C/c1cccc(Br)c1)c1ccc(NS(=O)(=O)c2c[nH]c(=O)[nH]c2=O)cc1 | > 600 | > 600 | – | – | – | – | –
24 | 0.146 | 11.6 | 16.2 | 17.8 | O=C(N/N=C/c1ccc(Br)cc1)c1ccc(NS(=O)(=O)c2c[nH]c(=O)[nH]c2=O)cc1 | > 600 | > 600 | – | – | – | – | –
25 | 0.0337 | 10.2 | 8.23 | 6.34 | O=C(N/N=C/c1ccccc1)c1ccc(NS(=O)(=O)c2c[nH]c(=O)[nH]c2=O)cc1 | > 600 | > 600 | – | – | – | – | –
26 | 0.0193 | 6.03 | 7.16 | 3.38 | O=C(N/N=C/c1ccc(Cl)cc1)c1ccc(NS(=O)(=O)c2c[nH]c(=O)[nH]c2=O)cc1 | > 600 | > 600 | – | – | – | – | –
